From PubChem BioAssay AID2060885 (Molecular Pharmacology Branch, DTP, NCI, 2025)

Tested on: NCI-H23 complex spheroids with HUVEC/MSC, viability
Test: Anticancer human tumor NCI-H23 cell line growth inhibition [RAS];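 on viability, T/C: 100% = DMSO vehicle control viability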
Conditions: for IC50: curve of first compound; for viability, T/C: stronger effect = lower value
Text: RAS pathway inhibitors in Combinations in Complex Spheroids
A high-throughput screen of multi-cell type tumor spheroids was designed to identify active combinations of RAS pathway inhibitors and targeted small molecules. Complex spheroids include a stromal component modeled by human endothelial cells (HUVEC) and fibroblasts modeled by human mesenchymal stem cells (MSCs). The concentration ranges selected for each drug and investigational agent were based upon clinically achievable concentrations if the clinical Cmax of the agent was known.
Compounds. The drugs and investigational agents: abemaciclib (NSC768073), cobimetinib (NSC768068), divarasib (GDC6063, NSC841802), docetaxel (NSC628503), GDC-1971 (RLY-1971, NSC841576), gemcitabine (NSC613327), inavolisib (NSC800729), ipatasertib (NSC767898), KB-0742 (NSC834161), MRTX-1133 (NSC836407), osimertinib (NSC779217), RMC-4630 (NSC839698), RMC-6236 (NSC851965), RMC-6291 (NSC852671), Ro-3306 (NSC812927), sapanisertib (NSC764658), SN-38 (NSC673596), staurosporine (NSC755774), SY5609 (NSC837396), and tovorafenib (DAY101, NSC766906), were obtained from the National Cancer Institute (NCI) Developmental Therapeutics Program Chemical Repository. The FDA-approved anticancer drug set is available from the NCI Developmental Therapeutics Program. […] The stock solutions were prepared in dimethyl sulfoxide (DMSO, Sigma-Aldrich, St. Louis, MO, cat. D2650) at 800-fold the tested concentration and stored at -70 degrees C prior to their use. All drugs and investigational agents were tested over a range starting from a high concentration at or near the clinical Cmax and decreasing in half-log increments. If the clinical Cmax for an agent had not been determined, the highest concentration tested was 10 microM.
Cell Culture. All cells were maintained in an incubator at 37 degrees C and 5% CO2 with 95% humidity. The PDC lines were cultured according to standard operating procedures established by the NCI PDMR. All PDCs were thawed and cultured in Matrigel-coated flasks prepared with a working solution of 1X Ham's F-12 nutrient mix, without supplementation (Invitrogen, Waltham, MA, cat. 11765054), 100 U/mL penicillin-streptomycin (Invitrogen, cat. 15140122), and 2.5% Matrigel (Corning Inc., Corning, NY, cat. 354248) for the first three passages. The 362531-283-R-J2-PDC and 782815-120-R-J1-PDC lines were cultured in 6C/Colon 1B media, which includes advanced DMEM/F-12 (Thermo Fisher Scientific, cat. 12634028), 10 mM HEPES (Thermo Fisher Scientific, cat. 15630080), 1X GlutaMAX supplement (Thermo Fisher Scientific, cat. 35050061), 0.1 mg/mL primocin (InvivoGen, San Diego, CA, cat. ant-pm-2), 10% defined fetal bovine serum, heat inactivated (HyClone Laboratories Inc., Logan, UT, cat. SH30070.03HI), 50% L-WRN conditioned media (ATCC, cat. CRL-3276), 1.25 mM N-Acetyl-L-cysteine (Sigma-Aldrich, cat. A9165), 10 mM nicotinamide (Sigma-Aldrich, cat. N0636), 1X B-27 supplement (Thermo Fisher Scientific, cat. 17504044), 1X N-2 supplement (Thermo Fisher Scientific, cat. 17502048), 50 ng/mL human EGF (Thermo Fisher Scientific, cat. PHG0311), and 10 microM Y-27632 dihydrochloride (Tocris Bioscience, cat. 1254). The K12877-001-R-J1-PDC line was cultured in 6I media, which includes all 6C/Colon 1B media plus 10 ng/mL human FGF-10 (PeproTech, cat. 100-26), 1 ng/mL human FGF-2 (PeproTech, cat. 100-18B), 1 µM prostaglandin E2 (Tocris Bioscience, cat. 2296), […] hydrocortisone (Sigma-Aldrich, cat. H4001), and […] bovine insulin (Sigma-Aldrich, cat. I6634). The K86415-001-R-J1-PDC line was cultured in 6D media, which includes all 6C/Colon 1B media components minus the L-WRN conditioned media. The 485176-168-R4-J1-PDC was cultured in PANC media, which includes all 6C/Colon 1B media plus 100 ng/mL human FGF-10 (PeproTech, cat. 100-26), 500 nM SB-431542 (Selleckchem, cat. S1067), and 10 nM gastrin (Tocris Bioscience, cat. 3006). […]

[1] = second compound 0.0316 µM, first compound 0.0316 µM
[2] = second compound 0.0316 µM, first compound 0.1 µM
[3] = second compound 0.0316 µM, first compound 0.316 µM
[4] = second compound 0.0316 µM, first compound 1 µM
[5] = second compound 0.0316 µM, first compound 3.16 µM
[6] = second compound 0.0316 µM, first compound 10 µM
[7] = second compound 0.1 µM, first compound 0.0316 µM
[8] = second compound 0.1 µM, first compound 0.1 µM
[9] = second compound 0.1 µM, first compound 0.316 µM
[10] = second compound 0.1 µM, first compound 1 µM
[11] = second compound 0.1 µM, first compound 3.16 µM
[12] = second compound 0.1 µM, first compound 10 µM
[13] = second compound 0.316 µM, first compound 0.0316 µM
[14] = second compound 0.316 µM, first compound 0.1 µM
[15] = second compound 0.316 µM, first compound 0.316 µM
[16] = second compound 0.316 µM, first compound 1 µM
[17] = second compound 0.316 µM, first compound 3.16 µM
[18] = second compound 0.316 µM, first compound 10 µM
[19] = second compound 1 µM, first compound 0.0316 µM
[20] = second compound 1 µM, first compound 0.1 µM
[21] = second compound 1 µM, first compound 0.316 µM
[22] = second compound 1 µM, first compound 1 µM
[23] = second compound 1 µM, first compound 3.16 µM
[24] = second compound 1 µM, first compound 10 µM
[25] = second compound 3.16 µM, first compound 0.0316 µM
[26] = second compound 3.16 µM, first compound 0.1 µM
[27] = second compound 3.16 µM, first compound 0.316 µM
[28] = second compound 3.16 µM, first compound 1 µM
[29] = second compound 3.16 µM, first compound 3.16 µM
[30] = second compound 3.16 µM, first compound 10 µM
[31] = second compound 10 µM, first compound 0.0316 µM
[32] = second compound 10 µM, first compound 0.1 µM
[33] = second compound 10 µM, first compound 0.316 µM
[34] = second compound 10 µM, first compound 1 µM
[35] = second compound 10 µM, first compound 3.16 µM
[36] = second compound 10 µM, first compound 10 µM

## CCC(CC)c1cc(NC2CCC(N)C2)n2nccc2n1 (stereo unspecified) + C#Cc1c(F)ccc2cc(O)cc(-c3ncc4c(N5CC6CCC(C5)N6)nc(OCC56CCCN5CC(F)C6)nc4c3F)c12
Second compound 0.0316 µM
  IC50: 1800 nM
Second compound 0.1 µM
  IC50: 1780 nM
Second compound 0.316 µM
  IC50: 1680 nM
Second compound 1 µM
  IC50: 1440 nM
Second compound 3.16 µM
  IC50: 1110 nM
Second compound 10 µM
  IC50: < 31.6 nM
[1]
  viability, T/C: 102%
[2]
  viability, T/C: 129%
[3]
  viability, T/C: 99.8%
[4]
  viability, T/C: 89.4%
[5]
  viability, T/C: 12.8%
[6]
  viability, T/C: 1.4%
[7]
  viability, T/C: 109%
[8]
  viability, T/C: 127%
[9]
  viability, T/C: 104%
[10]
  viability, T/C: 90.9%
[11]
  viability, T/C: 9.22%
[12]
  viability, T/C: 1.06%
[13]
  viability, T/C: 113%
[14]
  viability, T/C: 128%
[15]
  viability, T/C: 98.9%
[16]
  viability, T/C: 83.1%
[17]
  viability, T/C: 10.2%
[18]
  viability, T/C: 1.06%
[19]
  viability, T/C: 108%
[20]
  viability, T/C: 121%
[21]
  viability, T/C: 92%
[22]
  viability, T/C: 71.6%
[23]
  viability, T/C: 9.15%
[24]
  viability, T/C: 0.7%
[25]
  viability, T/C: 76.2%
[26]
  viability, T/C: 70.1%
[27]
  viability, T/C: 57.7%
[28]
  viability, T/C: 55.3%
[29]
  viability, T/C: 5.85%
[30]
  viability, T/C: 0.62%
[31]
  viability, T/C: 36.7%
[32]
  viability, T/C: 45.5%
[33]
  viability, T/C: 41.9%
[34]
  viability, T/C: 37.9%
[35]
  viability, T/C: 3.49%
[36]
  viability, T/C: 1.1%

## Cc1nc(N2CCC3(CC2)COC(C)C3N)c(CO)nc1Sc1ccnc(N)c1Cl (stereo unspecified) + C#Cc1c(F)ccc2cc(O)cc(-c3ncc4c(N5CC6CCC(C5)N6)nc(OCC56CCCN5CC(F)C6)nc4c3F)c12
Second compound 0.0316 µM
  IC50: > 10000 nM
Second compound 0.1 µM
  IC50: 769 nM
Second compound 0.316 µM
  IC50: 391 nM
Second compound 1 µM
  IC50: 216 nM
Second compound 3.16 µM
  IC50: 66.2 nM
Second compound 10 µM
  IC50: < 31.6 nM
[1]
  viability, T/C: 101%
[2]
  viability, T/C: 110%
[3]
  viability, T/C: 68.5%
[4]
  viability, T/C: 62.7%
[5]
  viability, T/C: 42.8%
[6]
  viability, T/C: 48.3%
[7]
  viability, T/C: 115%
[8]
  viability, T/C: 110%
[9]
  viability, T/C: 64.8%
[10]
  viability, T/C: 48.6%
[11]
  viability, T/C: 44.2%
[12]
  viability, T/C: 41.5%
[13]
  viability, T/C: 106%
[14]
  viability, T/C: 95.2%
[15]
  viability, T/C: 51.4%
[16]
  viability, T/C: 45.5%
[17]
  viability, T/C: 36%
[18]
  viability, T/C: 39.5%
[19]
  viability, T/C: 78.7%
[20]
  viability, T/C: 60.7%
[21]
  viability, T/C: 45.2%
[22]
  viability, T/C: 35.3%
[23]
  viability, T/C: 35.2%
[24]
  viability, T/C: 32.6%
[25]
  viability, T/C: 57.8%
[26]
  viability, T/C: 45.7%
[27]
  viability, T/C: 35.8%
[28]
  viability, T/C: 29.6%
[29]
  viability, T/C: 30.9%
[30]
  viability, T/C: 26.9%
[31]
  viability, T/C: 38.1%
[32]
  viability, T/C: 35.2%
[33]
  viability, T/C: 31.7%
[34]
  viability, T/C: 26.1%
[35]
  viability, T/C: 26.8%
[36]
  viability, T/C: 18.2%

## NC1c2ccccc2OC12CCN(c1cnc3c(N4CCCc5ncccc54)n[nH]c3n1)CC2 (stereo unspecified) + C#Cc1c(F)ccc2cc(O)cc(-c3ncc4c(N5CC6CCC(C5)N6)nc(OCC56CCCN5CC(F)C6)nc4c3F)c12
Second compound 0.0316 µM
  IC50: 281 nM
Second compound 0.1 µM
  IC50: 268 nM
Second compound 0.316 µM
  IC50: 175 nM
Second compound 1 µM
  IC50: 57 nM
Second compound 3.16 µM
  IC50: < 31.6 nM
Second compound 10 µM
  IC50: < 31.6 nM
[1]
  viability, T/C: 69.3%
[2]
  viability, T/C: 76.8%
[3]
  viability, T/C: 47.3%
[4]
  viability, T/C: 41.6%
[5]
  viability, T/C: 35.7%
[6]
  viability, T/C: 34%
[7]
  viability, T/C: 74.9%
[8]
  viability, T/C: 65%
[9]
  viability, T/C: 45.8%
[10]
  viability, T/C: 38.6%
[11]
  viability, T/C: 33.9%
[12]
  viability, T/C: 30.1%
[13]
  viability, T/C: 76.3%
[14]
  viability, T/C: 56.4%
[15]
  viability, T/C: 40.3%
[16]
  viability, T/C: 36.4%
[17]
  viability, T/C: 31.4%
[18]
  viability, T/C: 22.3%
[19]
  viability, T/C: 58.4%
[20]
  viability, T/C: 40.6%
[21]
  viability, T/C: 32.8%
[22]
  viability, T/C: 32.4%
[23]
  viability, T/C: 21.7%
[24]
  viability, T/C: 19.6%
[25]
  viability, T/C: 38.5%
[26]
  viability, T/C: 38.6%
[27]
  viability, T/C: 31.5%
[28]
  viability, T/C: 25.2%
[29]
  viability, T/C: 21%
[30]
  viability, T/C: 15.5%
[31]
  viability, T/C: 28.4%
[32]
  viability, T/C: 30.7%
[33]
  viability, T/C: 19%
[34]
  viability, T/C: 16.2%
[35]
  viability, T/C: 15.5%
[36]
  viability, T/C: 12.6%
